Literature values as cited in US11000475B2, “Ophthalmic solution of difluprednate” (Sun Pharma Advanced Research Company Limited, priority 2015, dated 2021).

solubility in aqueous vehicle: practically insoluble
SMILES: CCCC(=O)O[C@]1(C(=O)COC(C)=O)CCC2[C@@H]3CC(F)C4=CC(=O)C=C[C@]4(C)C3(F)[C@@H](O)C[C@@]21C (stereo partly shown) [Difluprednate]
